Among the test systems are OVCAR-4 ovarian; SF-539 CNS; HCT-15 colon; SK-OV-3 ovarian; SN12C renal; HT29 colon; T-47D breast; HCC-2998 colon; SR leukemia; KM12 colon; M14 melanoma; OVCAR-5 ovarian; SNB-75 CNS; CCRF-CEM leukemia; 786-0 renal; COLO 205 colon; UO-31 renal; OVCAR-3 ovarian.
Experiment in all cases: NCI-60 cell line screen, 48 h

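1) Cells in 96-well plates. 2) Compound, 48 h, 5 concentrations. 3) Linear interpolation between surrounding doses. 4) Unreached endpoint = highest concentration. TGI denotes the concentration required for complete inhibition of growth.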

As for `COC(=O)[C@@H]1[C@H](OC(C)=O)CCC2[C@@]3(C[C@@H](c4ccoc4)O[C@@H]3OC)[C@H](C)CC[C@]21C(=O)OC` (some centres not stated), the TGI with OVCAR-4 ovarian, in the assay on SF-539 CNS, in the assay with HCT-15 colon, in the assay on SK-OV-3 ovarian, in the assay with SN12C renal and in the assay with HT29 colon was over 25 µM in each case. Moreover, the TGI in the assay on T-47D breast, with HCC-2998 colon, in the assay with SR leukemia, in the assay on KM12 colon, in the assay on M14 melanoma and in the assay on OVCAR-5 ovarian was over 25 µM in each case. In addition, the TGI in the assay on SNB-75 CNS, in the assay on CCRF-CEM leukemia, in the assay on 786-0 renal, in the assay with COLO 205 colon, in the assay on UO-31 renal and in the assay with OVCAR-3 ovarian was over 25 µM each time.

Take `COCc1nc(N)nc(N2N=C(C)CC2(C)C)n1`: the TGI in the assay on OVCAR-4 ovarian, with SF-539 CNS, with HCT-15 colon, in the assay on SK-OV-3 ovarian, in the assay on SN12C renal and in the assay with HT29 colon was over 100 µM in each case. For the same compound, the TGI in the assay with T-47D breast, in the assay on HCC-2998 colon, in the assay on SR leukemia, in the assay with KM12 colon, in the assay with M14 melanoma and in the assay with OVCAR-5 ovarian was over 100 µM in each case. Besides, the TGI in the assay with SNB-75 CNS, with CCRF-CEM leukemia, with 786-0 renal, in the assay with COLO 205 colon, in the assay with UO-31 renal and in the assay with OVCAR-3 ovarian was over 100 µM in each case.

Regarding `COc1cc2c3c(c1)CCCN3CCC2`, the TGI with OVCAR-4 ovarian, in the assay with SF-539 CNS, in the assay with HCT-15 colon, in the assay with SK-OV-3 ovarian, in the assay on SN12C renal and in the assay on HT29 colon was over 10 µM each time. In addition, the TGI in the assay on T-47D breast, in the assay with HCC-2998 colon, in the assay on SR leukemia, in the assay with KM12 colon, in the assay on M14 melanoma and in the assay with SNB-75 CNS was over 10 µM in each case. The TGI with CCRF-CEM leukemia, in the assay with 786-0 renal, in the assay with COLO 205 colon, in the assay on UO-31 renal and in the assay with OVCAR-3 ovarian was over 10 µM each time.

Turning to `Cc1ccc(NC(Nc2ccc(C)cc2C)=C(/C=C(\Cl)[N+](=O)[O-])[N+](=O)[O-])c(C)c1`, the TGI is 12.9 µM with OVCAR-4 ovarian; 23.3 µM in the assay with SF-539 CNS; 11.5 µM in the assay on HCT-15 colon; 21 µM in the assay on SK-OV-3 ovarian; 14.4 µM in the assay on SN12C renal; 18.8 µM with HT29 colon. Moreover, the TGI amounted to 3.99 µM in the assay on T-47D breast; 38.4 µM in the assay on HCC-2998 colon; 4.13 µM in the assay with SR leukemia; 26.7 µM in the assay with KM12 colon; 5.69 µM in the assay with M14 melanoma; 19.7 µM with OVCAR-5 ovarian. Besides, the TGI in the assay with SNB-75 CNS is 16.4 µM; with CCRF-CEM leukemia it was 1.72 µM; in the assay on 786-0 renal, 8.95 µM; in the assay with COLO 205 colon, 4.99 µM; in the assay on UO-31 renal, 19.2 µM; with OVCAR-3 ovarian, 8.7 µM.

Turning to `CN1c2ccccc2C(=O)NC12CCN(CCCC(=O)c1ccc(F)cc1)CC2`, the TGI in the assay with OVCAR-4 ovarian was over 100 µM; in the assay on SF-539 CNS it was over 100 µM; in the assay with HCT-15 colon it was over 100 µM; with SK-OV-3 ovarian, over 100 µM; in the assay with SN12C renal it was over 100 µM; with HT29 colon it was 56.1 µM. For the same compound, the TGI in the assay with T-47D breast was over 100 µM; in the assay with HCC-2998 colon, 40.3 µM; in the assay on SR leukemia it was over 100 µM; in the assay with KM12 colon, over 100 µM; in the assay with M14 melanoma it was 32.5 µM; in the assay on OVCAR-5 ovarian, over 100 µM. The TGI in the assay on SNB-75 CNS was over 100 µM; in the assay on CCRF-CEM leukemia it was over 100 µM; with 786-0 renal it was over 100 µM; in the assay with COLO 205 colon it was 30.4 µM; in the assay with UO-31 renal it was over 100 µM; in the assay on OVCAR-3 ovarian it was over 100 µM.

With `CC1(/C=C/CCSc2ccccc2)CC(=O)C2CC1C2(C)C` (configuration not stated), the TGI with OVCAR-4 ovarian is over 100 µM; with SF-539 CNS it was 31.5 µM; in the assay with HCT-15 colon, over 96 µM; in the assay with SK-OV-3 ovarian, over 100 µM; with SN12C renal, 45.6 µM; in the assay with HT29 colon, 29.4 µM. The TGI with T-47D breast is over 100 µM; in the assay with HCC-2998 colon it was over 73.5 µM; in the assay on SR leukemia, 16.9 µM; in the assay on KM12 colon it was 54.4 µM; in the assay with M14 melanoma it was over 100 µM; in the assay on OVCAR-5 ovarian, over 100 µM. In addition, the TGI was over 100 µM in the assay with SNB-75 CNS; 31 µM in the assay on CCRF-CEM leukemia; over 54.6 µM in the assay on 786-0 renal; 70.6 µM in the assay on COLO 205 colon; 43.5 µM with UO-31 renal; over 91.3 µM in the assay with OVCAR-3 ovarian.

As to `CCOC(=O)C1C(c2ccc3c(c2)OCO3)c2c([nH][nH]c2=O)CC1(C)O` (configuration not stated), the TGI in the assay on OVCAR-4 ovarian, with SF-539 CNS, in the assay on HCT-15 colon, in the assay with SN12C renal, in the assay on HT29 colon and with T-47D breast was over 100 µM in each case. In addition, the TGI in the assay with HCC-2998 colon, in the assay with SR leukemia, with KM12 colon, with M14 melanoma, with OVCAR-5 ovarian and in the assay on SNB-75 CNS was over 100 µM in each case. The TGI in the assay on CCRF-CEM leukemia, with 786-0 renal, in the assay with COLO 205 colon, in the assay on UO-31 renal and with OVCAR-3 ovarian was over 100 µM each time.

With `CC(=O)c1ccc2c(c1)CC1(C2)Cc2cc3c(cc2C1=O)CCC3` (configuration not stated), the TGI in the assay on OVCAR-4 ovarian is 48 µM; with SF-539 CNS, 72.4 µM; with HCT-15 colon, 95.9 µM; with SK-OV-3 ovarian, 96.3 µM; in the assay with SN12C renal, 57.3 µM; with HT29 colon it was over 100 µM. Also, the TGI with T-47D breast amounted to 88.5 µM; in the assay with HCC-2998 colon, 68.4 µM; with SR leukemia, 16.7 µM; in the assay on KM12 colon it was 32.4 µM; in the assay on M14 melanoma, 28.9 µM; in the assay on OVCAR-5 ovarian it was 83 µM. In addition, the TGI with SNB-75 CNS was 41.2 µM; with CCRF-CEM leukemia, 59.2 µM; in the assay on 786-0 renal, 63.1 µM; in the assay with COLO 205 colon, 31.2 µM; in the assay on UO-31 renal it was 63.5 µM; in the assay on OVCAR-3 ovarian it was 40.6 µM.

These data come from PubChem BioAssay (NCI).
